From patent US20230050846A1, “TREATMENT OF HEPATIC AND CARDIOVASCULAR DISORDERS” (LIFESEARCH, priority 2019, published 2023)
Peptide text beside a SMILES is read from it. * marks the point of attachment. Palmitoyl = CCCCCCCCCCCCCCCC(=O)*

Tests used:
[1] = biological target: T1, human F1Fo-ATPase (Homo sapiens, UniProt P06576); test: Surface plasmon resonance (SPR) binding to purified human F1Fo-ATPase; conditions: SPR single-cycle kinetics; His-tag / biotin variant of peptide immobilized, F1Fo-ATPase as analyte; read-out: KD (affinity between F1Fo-ATPase and immobilized peptide)
T1 construct: Human F1Fo-ATPase was purified from HepG2 cells by immunocapture; endogenous in cells; host or cells: HepG2 cells; complex isolated by immunocapture with anti-ATP synthase antibody 12F4AD8AF8 (#ab109867, Abcam)
Description: Surface plasmon resonance (SPR) assays. Binding studies based on SPR technology were performed on a BIAcore T200 optical biosensor instrument (GE Healthcare®, Uppsala, Sweden). The peptide of formula (I) with C-terminal 6×His-tag (Formula (I)-His-tag: CH3CO-[SEQ ID NO: 1]-HHHHHH) and the peptide of formula (II) with C-terminal biotin (Formula (II)-Biotin: CH3CO-[SEQ ID NO: 1]-K-[palmitoyl]-AEEAc-K-[biotinyl]-NH2) were custom-synthesized by BACHEM AG (Bubendorf, Switzerland) with >90% purity in trifluoroacetate salt. Human F1Fo-ATPase was purified from HepG2 cells by immunocapture using mouse monoclonal anti-ATP synthase antibody (12F4AD8AF8, #ab109867, Abcam) according to manufacturer's instructions.
Immobilization of the peptide of formula (I)-6His-tag was performed on a nitrilotriacetic acid (NTA) sensorchip in HBS-P+ buffer (10 mM Hepes pH 7.4, 150 mM NaCl, and 0.05% surfactant P20) (GE Healthcare). To saturate the NTA surface with Ni2^+, flow cells (Fc) were loaded with 0.5 mM NiCl2 solution. The channel Fc1 was left empty and used as a reference surface for nonspecific binding measurements. Formula (I)-6×His was injected in the channel Fc2 at a flow-rate of 5 μL/min and stabilized by amine coupling (Laboratory guideline 29-0057-17 AB). The total amount of immobilized Formula (I)-His-tag was 300-350 resonance units (RU): final concentration 25 μg/mL. […]

[2] = test system: HUVEC cells; test: Endothelial nitric oxide (NO) production, DAF-FM-DA probe; type: cell-based, human; conditions: 1 μM, 10 min; abolished by IF1
Description: Nitric oxide (NO) was detected using a DAF-FM-DA probe (D2321, Sigma-Aldrich) which forms fluorescent benzotriazole when it reacts with NO. HUVEC cells (PromoCell #C-12203) were seeded in 96-well plates (10,000 cells per well) and cultured in endothelial cell basal medium 2 (PromoCell #C-22211) supplemented with GM2 supplement Mix (PromoCell #C-39211), until 80-90% confluence. The medium was then replaced with M-199 without serum for 4 h, and the cells were incubated for 45 min with DAF-FM-DA (5 μM) diluted in PBS. Cells were treated with increasing concentrations of the different peptides or apoA-I (10 μM) purified from human plasma or histamine (1 mM) as positive control. In another set of experiments, cells were incubated with inhibitors (IF1, 1 μM) for 10 min before treatment with peptides or apoA-I. The fluorescence was recorded for 30 min (λex=495 nm, λem=515 nm) with a Tecan Flash Multimode Reader (Thermo Fisher Scientific). Fluorescence for each condition was compared with the value obtained in untreated cells, and results were expressed as the fold change as compared with the basal condition (untreated cells).

Row | Kd [1] [nM] | Molecule | stimulation of NO production by endothelial cells [2]
1 | 4.45 | CCCCCCCCCCCCCCCC(=O)NCCCC[C@H](NC(=O)[C@H](CCC(=O)O)NC(=O)[C@H](CCCNC(=N)N)NC(=O)[C@H](CO)NC(=O)[C@H](CCC(N)=O)NC(=O)[C@H](C)NC(=O)[C@H](CCCNC(=N)N)NC(=O)[C@H](Cc1ccccc1)NC(=O)[C@H](Cc1ccc(O)cc1)NC(=O)[C@H](CCCNC(=N)N)NC(=O)[C@H](CCC(=O)O)NC(=O)[C@H](CCC(=O)O)NC(=O)[C@H](CCC(=O)O)NC(=O)[C@H](C)NC(=O)[C@H](CCC(N)=O)NC(=O)[C@H](CCC(=O)O)NC(=O)[C@H](CCCNC(=N)N)NC(=O)[C@H](CCCCN)NC(=O)CNC(=O)[C@H](Cc1ccccc1)NC(=O)[C@H](C)NC(=O)CNC(=O)CNC(=O)[C@H](C)NC(=O)[C@H](CCC(=O)O)NC(=O)[C@H](CCCNC(=N)N)NC(=O)[C@@H](NC(=O)[C@H](CO)NC(=O)CNC(=O)[C@H](C)NC(=O)CNC(=O)[C@H](CCCNC(=N)N)NC(C)=O)[C@@H](C)CC)C(N)=O [peptide of formula (II), CH3CO-[SEQ ID NO: 1]-K-[palmitoyl]-NH2] (Ac-RGAGSIREAGGAFGKREQAEEERYFRAQSREK(Palmitoyl)-NH2) | about 50%
2 | 19 | Ac-RGAGSIREAGGAFGKREQAEEERYFRAQSRE-NH2 [peptide of formula (I), CH3CO-[SEQ ID NO: 1]-NH2] | about 50%
